Assay results: patent US9884063B2, “Amido-substituted azole compounds” (Bayer Pharma Aktiengesellschaft, priority 2014, dated 2018)

Key:
[1] = system: wildtype Wnt signaling cascade; test: HEK293 TOP Assay (Super TopFlash luciferase reporter, Wnt-3a stimulated); assay type: cell-based; details: Homo sapiens, HEK293, 16 h, HEK293 TOP reporter cell line, Wnt-3a at EC50, 16 hours incubation, compound dilution series 50 μM to 15 nM
Outline: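 HEK293 cells stably carrying Super TopFlash (TOP) or FOP reporter, stimulated with recombinant human Wnt-3a (2500–5 ng/ml, two-fold steps). Both lines incubated in parallel with compound from 50 μM to 15 nM (3.16-fold) in CAFTY buffer pH 7.4 with 2 mM Ca2+ and 0.01% BSA; selectivity judged TOP vs FOP.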

[2] = molecular target: T1, TNKS2 (Homo sapiens, UniProt Q9H2K2); test: Modified TNKS2 Assay 2 (auto-parsylation, [3H]-NAD+ SPA); assay type: biochemical; details: 6 nM TNKS2, 96 well
T1 sequence (Q9H2K2 1-1166): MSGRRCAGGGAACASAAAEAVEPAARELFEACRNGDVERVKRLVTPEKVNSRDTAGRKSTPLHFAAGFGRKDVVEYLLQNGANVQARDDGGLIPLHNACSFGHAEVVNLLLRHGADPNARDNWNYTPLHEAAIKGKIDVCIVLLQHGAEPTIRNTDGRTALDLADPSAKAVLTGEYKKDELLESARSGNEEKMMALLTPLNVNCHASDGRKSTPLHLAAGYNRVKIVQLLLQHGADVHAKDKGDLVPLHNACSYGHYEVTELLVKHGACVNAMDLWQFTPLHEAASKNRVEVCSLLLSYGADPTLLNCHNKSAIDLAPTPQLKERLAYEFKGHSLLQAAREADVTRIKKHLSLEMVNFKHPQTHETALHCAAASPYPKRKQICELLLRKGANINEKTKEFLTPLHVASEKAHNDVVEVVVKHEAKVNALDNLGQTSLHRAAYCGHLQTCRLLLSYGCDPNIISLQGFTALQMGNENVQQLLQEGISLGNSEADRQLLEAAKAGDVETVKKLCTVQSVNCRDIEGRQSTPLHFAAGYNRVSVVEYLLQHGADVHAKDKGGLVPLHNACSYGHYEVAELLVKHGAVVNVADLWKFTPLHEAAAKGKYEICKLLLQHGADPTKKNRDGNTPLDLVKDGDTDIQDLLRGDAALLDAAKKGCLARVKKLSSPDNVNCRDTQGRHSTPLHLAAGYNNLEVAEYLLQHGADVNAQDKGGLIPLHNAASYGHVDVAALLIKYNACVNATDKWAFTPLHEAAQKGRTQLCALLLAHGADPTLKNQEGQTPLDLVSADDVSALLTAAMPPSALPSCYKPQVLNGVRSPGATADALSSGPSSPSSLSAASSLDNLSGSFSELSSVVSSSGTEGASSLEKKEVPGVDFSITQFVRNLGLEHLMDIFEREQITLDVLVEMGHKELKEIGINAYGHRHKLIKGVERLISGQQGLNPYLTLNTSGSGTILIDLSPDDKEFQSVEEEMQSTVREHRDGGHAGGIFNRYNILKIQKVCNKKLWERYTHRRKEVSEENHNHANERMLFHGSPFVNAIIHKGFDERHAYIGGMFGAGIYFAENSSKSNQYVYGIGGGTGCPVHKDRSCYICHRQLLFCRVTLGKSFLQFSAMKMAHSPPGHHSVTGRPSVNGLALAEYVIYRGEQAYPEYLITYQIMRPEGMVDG
Experimental: The potency of selected compounds according to the invention was assessed applying an modified in vitro inhibition assay. Here, the TNKS2 catalyzed NAD^+-dependent ribosylation of the enzyme itself (auto-parsylation) was detected using [^3H]-NAD^+ as substrate and applying the scintillation proximity assay (SPA) method to detect tritium-labeled, parsylated TNKS2. The intensity of the readout signal is proportional to the incorporated [^3H]-NAD^+. Inhibition of TNKS2 leads to a decreased incorporation of [^3H]-NAD^+ and consequently to a lower readout signal intensity. The concentration of a test compound which inhibits the enzyme activity by 50% (corresponds to half of the normed readout signal intensity) is reported as IC50.
The assay was conducted in a 96 well MTP format with the identical TNKS2 enzyme sample and NAD^+ sample as in the histone ribosylation assay with the following modifications: TNKS2 enzyme sample was diluted with a modified assay buffer (50 mM MES pH 7.0, 1 mM DTT, 0.01% Triton X-100) to a final concentration of 6 nM TNKS2 and 10×NAD^+ solution was diluted with the modified assay buffer (s. above) to a final 0.445×NAD^+ solution doped with 100 Bq/ul [^3H]-NAD^+ [Catalog #NET443H050UC, Perkin Elmer, Waltham, Mass., USA]. Substrate solution (10 ul) was incubated with different test compound concentrations (2.5 ul in 10% DMSO in modified assay buffer) or control (2.5 ul 10% DMSO in modified assay buffer only) and enzyme (10 ul) over night at room temperature. Incorporated tritium was measured after addition of 50 ul SPA beads (1 mg/ml) [Catalog #RPNQ0095 20 mg/ml, Perkin Elmer, Waltham, Mass., USA; diluted 1:10 with Dulbecco's phosphate buffered saline, PBS Catalog #D8537, Sigma-Aldrich, Steinheim, Germany] and detection of the photon emission with a beta count plate reader [Wallac MicroBeta®, Perkin Elmer, Waltham, Mass., USA].

Row | Compound | IC50 [1] [µM] | IC50 [2] [µM]
1 | O=C(Nc1ccc(NC(=O)c2nc[nH]c2C(=O)NCCN2CCC2)cc1)c1ccc(F)cc1 [Example 199, N^5-[2-(azetidin-1-yl)ethyl]-N^4-{4-[(4-fluorobenzoyl)amino]phenyl}-1H-imidazole-4,5-dicarboxamide] | 1.03 | 0.13
2 | O=C(Nc1ccc(NC(=O)c2nc[nH]c2C(=O)NCCCN2CCOCC2)cc1)c1ccc(F)cc1 [Example 206, N^4-{4-[(4-fluorobenzoyl)amino]phenyl}-N^5-[3-(morpholin-4-yl)propyl]-1H-imidazole-4,5-dicarboxamide] | 2.1 | 5.3
3 | CNC(=O)c1nc[nH]c1C(=O)Nc1ccc(NC(=O)c2ccccc2O)cc1 [Example 239, N^5-{4-[(2-hydroxybenzoyl)amino]phenyl}-N^4-methyl-1H-imidazole-4,5-dicarboxamide] | 46.5 | > 10
4 | CNC(=O)c1nc[nH]c1C(=O)Nc1ccc(NC(=O)c2ccccc2C(F)F)cc1 [Example 241, N^5-(4-{[2-(difluoromethyl)benzoyl]amino}phenyl)-N^4-methyl-1H-imidazole-4,5-dicarboxamide] | 1.9 | 1.8
5 | CNC(=O)c1nc[nH]c1C(=O)Nc1ccc(NC(=O)c2ccccc2OC(F)(F)F)cc1 [Example 243, N^4-methyl-N^5-(4-{[2-(trifluoromethoxy)benzoyl]amino}phenyl)-1H-imidazole-4,5-dicarboxamide] | 11.5 | > 10
6 | CNC(=O)c1nc[nH]c1C(=O)Nc1ccc(NC(=O)c2cc(OC)ccc2Cl)cc1 [Example 248, N^5-{4-[(2-chloro-5-methoxybenzoyl)amino]phenyl}-N^4-methyl-1H-imidazole-4,5-dicarboxamide] | 0.85 | 0.48
7 | CCOc1ccc(C(=O)Nc2ccc(NC(=O)c3[nH]cnc3C(=O)NC)cc2)c(Cl)c1 [Example 250, N^5-{4-[(2-chloro-4-ethoxybenzoyl)amino]phenyl}-N^4-methyl-1H-imidazole-4,5-dicarboxamide] | 0.92 | 0.22
8 | CNC(=O)c1nc[nH]c1C(=O)Nc1ccc(NC(=O)c2ccc(OC(F)F)cc2F)cc1 [Example 251, N^5-(4-{[4-(difluoromethoxy)-2-fluorobenzoyl]amino}phenyl)-N^4-methyl-1H-imidazole-4,5-dicarboxamide] | 7.9 | > 10
9 | CNC(=O)c1nc[nH]c1C(=O)Nc1ccc(NC(=O)c2cccc(OC)c2Cl)cc1 [Example 252, N^5-{4-[(2-chloro-3-methoxybenzoyl)amino]phenyl}-N^4-methyl-1H-imidazole-4,5-dicarboxamide] | 4.05 | 3.8
10 | CNC(=O)c1nc[nH]c1C(=O)Nc1ccc(NC(=O)c2ccc(OC(F)(F)F)cc2F)cc1 [Example 253, N^5-(4-{[2-fluoro-4-(trifluoromethoxy)benzoyl]amino}phenyl)-N^4-methyl-1H-imidazole-4,5-dicarboxamide] | 12 | > 10

These reach a lower IC50 [1]. Values come first.

Row | IC50 [1] [µM] | IC50 [2] [µM] | Compound
11 | 0.53 | 0.33 | O=C(Nc1ccc(NC(=O)c2nc[nH]c2C(=O)NCCF)cc1)c1ccccc1Cl [Example 166, N^4-{4-[(2-chlorobenzoyl)amino]phenyl}-N^5-(2-fluoroethyl)-1H-imidazole-4,5-dicarboxamide]
12 | 0.8 | 0.18 | CC1CCCCN1CCNC(=O)c1[nH]cnc1C(=O)Nc1ccc(NC(=O)c2ccc(F)cc2)cc1 (centres unmarked) [Example 169, N^4-{4-[(4-fluorobenzoyl)amino]phenyl}-N^5-[2-(2-methylpiperidin-1-yl)ethyl]-1H-imidazole-4,5-dicarboxamide]
13 | 0.27 | 0.05 | O=C(Nc1ccc(NC(=O)c2nc[nH]c2C(=O)NCCF)cc1)c1ccc(F)cc1Cl [Example 173, N^4-{4-[(2-chloro-4-fluorobenzoyl)amino]phenyl}-N^5-(2-fluoroethyl)-1H-imidazole-4,5-dicarboxamide]
14 | 0.34 | 0.06 | O=C(Nc1ccc(NC(=O)c2nc[nH]c2C(=O)NCCN2CCCC2)cc1)c1ccc(F)cc1 [Example 176, N^4-{4-[(4-fluorobenzoyl)amino]phenyl}-N^5-[2-(pyrrolidin-1-yl)ethyl]-1H-imidazole-4,5-dicarboxamide]
15 | 0.64 | 0.01 | CC(CNC(=O)c1[nH]cnc1C(=O)Nc1ccc(NC(=O)c2ccccc2Cl)cc1)N1CCCCC1 (centres unmarked) [Example 182, N^4-{4-[(2-chlorobenzoyl)amino]phenyl}-N^5-[2-(piperidin-1-yl)propyl]-1H-imidazole-4,5-dicarboxamide]
16 | 0.82 | 0.05 | CC(C)(CN1CCCCC1)NC(=O)c1[nH]cnc1C(=O)Nc1ccc(NC(=O)c2ccc(F)cc2Cl)cc1 [Example 184, N^4-{4-[(2-chloro-4-fluorobenzoyl)amino]phenyl}-N^5-[2-methyl-1-(piperidin-1-yl)propan-2-yl]-1H-imidazole-4,5-dicarboxamide]
17 | 0.71 | 0.21 | CC(C)(CN1CCOCC1)NC(=O)c1[nH]cnc1C(=O)Nc1ccc(NC(=O)c2ccc(F)cc2Cl)cc1 [Example 207, N^4-{4-[(2-chloro-4-fluorobenzoyl)amino]phenyl}-N^5-[2-methyl-1-(morpholin-4-yl)propan-2-yl]-1H-imidazole-4,5-dicarboxamide]
18 | 0.12 | 0.008 | CN(C)CCNC(=O)c1[nH]cnc1C(=O)Nc1ccc(NC(=O)c2ccc(F)cc2Br)cc1 [Example 217, N^4-{4-[(2-bromo-4-fluorobenzoyl)amino]phenyl}-N^5-[2-(dimethylamino)ethyl]-1H-imidazole-4,5-dicarboxamide]
19 | 0.05 | 0.002 | O=C(Nc1ccc(NC(=O)c2nc[nH]c2C(=O)NCCN2CCCC(F)C2)cc1)c1ccc(F)cc1Cl (centres unmarked) [Example 226, N^4-{4-[(2-chloro-4-fluorobenzoyl)amino]phenyl}-N^5-[2-(3-fluoropiperidin-1-yl)ethyl]-1H-imidazole-4,5-dicarboxamide]
20 | 0.08 | 0.03 | CNC(=O)c1nc[nH]c1C(=O)Nc1ccc(NC(=O)c2cc(OC)c(OC)cc2Cl)cc1 [Example 240, N^5-{4-[(2-chloro-4,5-dimethoxybenzoyl)amino]phenyl}-N^4-methyl-1H-imidazole-4,5-dicarboxamide]
21 | 0.08 | 0.03 | CNC(=O)c1nc[nH]c1C(=O)Nc1ccc(NC(=O)c2cc(F)c(F)cc2Cl)cc1 [Example 242, N^5-{4-[(2-chloro-4,5-difluorobenzoyl)amino]phenyl}-N^4-methyl-1H-imidazole-4,5-dicarboxamide]
22 | 0.17 | 0.09 | CNC(=O)c1nc[nH]c1C(=O)Nc1ccc(NC(=O)c2ccc(C)cc2Cl)cc1 [Example 244, N^5-{4-[(2-chloro-4-methylbenzoyl)amino]phenyl}-N^4-methyl-1H-imidazole-4,5-dicarboxamide]
